In ChEMBL document CHEMBL1201862, “PubChem BioAssay data set” (2004):
Active and inactive are the calls of the source.

Columns and labels:
[1] = A cytotoxicity screen of small molecule inhibitors of the PhoP region in Salmonella typhi identified in the primary screen. [Related pubchem assays: 1850, 1864, 1985 ]; type: functional
[2] = molecular target: T1, Cytochrome P450 3A4 (Homo sapiens, UniProt P08684); details: Potency
[3] = molecular target: Induced myeloid leukemia cell differentiation protein Mcl-1 (Homo sapiens, UniProt Q07820); type: functional
[4] = cytotoxicity in HEK-293T cells, dose response, cytotoxicity control for TCR NF-kB inhibitor project, luminescence, T-cell screen hits (AID 489026); type: functional, cell-based;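 further: cells exposed to compound about 14 hours before the viability readout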
[5] = molecular target: T2, Protein skinhead-1 (Caenorhabditis elegans, UniProt P34707); type: functional
T2 sequence (P34707 whole entry): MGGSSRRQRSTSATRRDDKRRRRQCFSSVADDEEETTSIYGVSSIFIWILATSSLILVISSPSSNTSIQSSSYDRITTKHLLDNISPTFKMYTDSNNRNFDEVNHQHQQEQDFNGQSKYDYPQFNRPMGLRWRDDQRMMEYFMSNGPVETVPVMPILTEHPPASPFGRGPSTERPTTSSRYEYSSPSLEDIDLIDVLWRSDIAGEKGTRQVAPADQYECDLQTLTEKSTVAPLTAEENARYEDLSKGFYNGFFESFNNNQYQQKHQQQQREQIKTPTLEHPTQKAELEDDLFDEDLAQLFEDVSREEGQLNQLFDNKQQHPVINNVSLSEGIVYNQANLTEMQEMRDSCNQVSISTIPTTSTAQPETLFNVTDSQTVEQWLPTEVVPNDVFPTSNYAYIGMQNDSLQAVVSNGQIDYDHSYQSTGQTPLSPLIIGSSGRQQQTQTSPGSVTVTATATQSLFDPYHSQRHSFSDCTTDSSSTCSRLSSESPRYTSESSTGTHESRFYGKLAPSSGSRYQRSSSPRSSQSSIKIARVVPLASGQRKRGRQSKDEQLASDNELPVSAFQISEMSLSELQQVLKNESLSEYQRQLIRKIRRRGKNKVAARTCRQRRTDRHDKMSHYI

[6] = molecular target: Cytochrome P450 2D6 (Homo sapiens, UniProt P10635);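 further: CYP2D6 member of a cytochrome P450 panel assay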
[7] = molecular target: T3, Leucine aminopeptidase (Plasmodium falciparum 3D7, UniProt Q8IL11); assay: P. falciparum M17LAP inhibitors, primary screen, biochemical, fluorogenic H-Leu-NHMec substrate, 1536-well (AID 1619); type: functional
T3 sequence (Q8IL11 whole entry): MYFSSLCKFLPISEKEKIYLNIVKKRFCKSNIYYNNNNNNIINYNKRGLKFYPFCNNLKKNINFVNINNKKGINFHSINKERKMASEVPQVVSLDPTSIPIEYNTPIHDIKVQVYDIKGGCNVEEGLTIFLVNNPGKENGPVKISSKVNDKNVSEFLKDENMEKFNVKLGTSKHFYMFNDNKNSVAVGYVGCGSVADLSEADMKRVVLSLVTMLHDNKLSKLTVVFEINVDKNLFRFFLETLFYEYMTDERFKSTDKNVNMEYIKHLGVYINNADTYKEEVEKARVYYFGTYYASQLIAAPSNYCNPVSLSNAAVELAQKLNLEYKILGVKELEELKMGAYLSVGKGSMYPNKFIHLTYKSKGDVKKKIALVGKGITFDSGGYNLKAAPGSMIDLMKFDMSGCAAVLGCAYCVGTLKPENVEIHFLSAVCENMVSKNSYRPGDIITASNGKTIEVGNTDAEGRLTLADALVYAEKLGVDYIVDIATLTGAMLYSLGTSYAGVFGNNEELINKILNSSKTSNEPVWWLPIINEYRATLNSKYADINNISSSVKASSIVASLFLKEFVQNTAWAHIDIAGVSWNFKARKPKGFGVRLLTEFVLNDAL

[8] = molecular target: T4, Calpain-2 catalytic subunit (Sus scrofa, UniProt P43367); assay: pig calpain II inhibitor potency, dose response, biochemical, fluorogenic peptide substrate (AID 1420); type: functional
T4 sequence (P43367 whole entry): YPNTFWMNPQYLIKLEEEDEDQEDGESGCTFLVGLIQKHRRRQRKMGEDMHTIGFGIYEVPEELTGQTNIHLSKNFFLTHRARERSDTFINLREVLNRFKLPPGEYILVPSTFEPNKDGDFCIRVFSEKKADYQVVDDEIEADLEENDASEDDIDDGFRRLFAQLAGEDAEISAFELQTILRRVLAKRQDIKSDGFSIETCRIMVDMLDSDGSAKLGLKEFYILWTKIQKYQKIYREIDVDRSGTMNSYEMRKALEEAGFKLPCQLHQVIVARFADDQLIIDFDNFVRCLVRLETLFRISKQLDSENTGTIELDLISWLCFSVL

[9] = molecular target: T5, Protein RecA (Mycobacterium tuberculosis, UniProt P9WHJ3); assay: Fluorescence Cell-Free Homogeneous Dose Retest to Identify Inhibitors of RecA-Intein Splicing Activity. [Related pubchem assays (depositor defined):AID2097, AID2223, AID489010, AID492950]; type: functional
T5 sequence (P9WHJ3 whole entry): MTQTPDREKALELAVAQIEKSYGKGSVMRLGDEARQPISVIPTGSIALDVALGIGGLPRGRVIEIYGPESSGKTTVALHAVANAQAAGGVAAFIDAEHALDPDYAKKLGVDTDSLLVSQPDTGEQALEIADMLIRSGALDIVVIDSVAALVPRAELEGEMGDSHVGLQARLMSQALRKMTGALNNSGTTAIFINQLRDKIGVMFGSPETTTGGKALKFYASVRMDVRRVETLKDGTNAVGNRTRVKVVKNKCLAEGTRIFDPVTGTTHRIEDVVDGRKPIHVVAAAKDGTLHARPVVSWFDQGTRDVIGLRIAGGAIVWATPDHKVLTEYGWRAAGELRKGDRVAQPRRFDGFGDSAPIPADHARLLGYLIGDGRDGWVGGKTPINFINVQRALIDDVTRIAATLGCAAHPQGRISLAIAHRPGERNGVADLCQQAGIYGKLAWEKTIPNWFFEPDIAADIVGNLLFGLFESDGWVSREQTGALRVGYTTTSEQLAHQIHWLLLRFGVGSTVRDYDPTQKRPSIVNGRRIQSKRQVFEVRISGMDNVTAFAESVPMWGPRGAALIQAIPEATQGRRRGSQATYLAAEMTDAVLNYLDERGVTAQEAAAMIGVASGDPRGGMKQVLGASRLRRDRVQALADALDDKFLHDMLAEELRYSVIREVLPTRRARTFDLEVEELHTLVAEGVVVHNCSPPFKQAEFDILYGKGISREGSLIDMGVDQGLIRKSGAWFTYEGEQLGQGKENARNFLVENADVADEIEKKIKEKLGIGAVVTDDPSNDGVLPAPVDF

[10] = molecular target: T6, Replicative DNA helicase DnaB (Mycobacterium tuberculosis, UniProt P9WMR3); assay: DnaB intein splicing inhibitors, dose response, biochemical, cell-free fluorescence (AID 449749); type: functional
T6 sequence (P9WMR3 whole entry): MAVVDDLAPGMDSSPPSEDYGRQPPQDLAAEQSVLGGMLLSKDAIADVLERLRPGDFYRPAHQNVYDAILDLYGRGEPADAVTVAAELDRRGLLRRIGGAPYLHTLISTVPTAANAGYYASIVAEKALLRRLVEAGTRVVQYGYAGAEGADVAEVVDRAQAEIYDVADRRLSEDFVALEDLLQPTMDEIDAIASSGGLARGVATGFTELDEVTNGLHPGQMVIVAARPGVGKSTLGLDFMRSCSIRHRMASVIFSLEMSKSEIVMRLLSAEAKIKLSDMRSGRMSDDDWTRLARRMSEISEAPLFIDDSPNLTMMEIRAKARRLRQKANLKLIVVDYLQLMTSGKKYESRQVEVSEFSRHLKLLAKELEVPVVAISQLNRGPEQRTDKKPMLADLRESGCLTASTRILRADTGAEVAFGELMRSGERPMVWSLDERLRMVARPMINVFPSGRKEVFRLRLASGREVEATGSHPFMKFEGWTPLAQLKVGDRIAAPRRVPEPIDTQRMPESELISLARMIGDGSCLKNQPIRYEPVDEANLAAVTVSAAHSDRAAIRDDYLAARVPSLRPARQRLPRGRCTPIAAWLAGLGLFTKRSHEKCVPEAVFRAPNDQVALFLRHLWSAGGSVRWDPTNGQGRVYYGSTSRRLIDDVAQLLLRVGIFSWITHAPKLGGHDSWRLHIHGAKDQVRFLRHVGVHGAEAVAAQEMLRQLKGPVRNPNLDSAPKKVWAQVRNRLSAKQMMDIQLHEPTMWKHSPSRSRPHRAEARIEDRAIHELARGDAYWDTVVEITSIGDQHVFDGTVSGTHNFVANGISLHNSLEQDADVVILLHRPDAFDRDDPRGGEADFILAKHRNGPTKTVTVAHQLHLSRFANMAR

[11] = molecular target: T1, Cytochrome P450 3A4
[12] = HEp-2 cell cytotoxicity, dose response, cytotoxicity control for RSV inhibitor project, HTS (AID 2410); type: functional; details: human respiratory syncytial virus
[13] = intracellular Trypanosoma cruzi inhibitors in host cells – cell-based, plate reader, cherry-pick samples, set 3, dose response (AID 651818); type: functional;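 further: compounds incubated with infected cells for about four days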
[14] = inhibitors of HIV Env-driven cell fusion, dose response, cherry-pick (AID 652057); type: functional, cell-based
[15] = ZM109 Env clade C HIV-1 fusion inhibitors, dose response, HeLa effector, CEM target cells, luciferase, cherry-pick (AID 652058); type: functional, cell-based
[16] = inhibitors of clade B AD8 Env fusion, dose response, cell-based, cherry-pick (AID 652062); type: functional;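 further: luciferase signal from cell-cell fusion driven by HIV-1 clade B AD8 Env; potency is for inhibitors of fusion seen as a drop in luminescence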

T1 sequence (P08684 whole entry): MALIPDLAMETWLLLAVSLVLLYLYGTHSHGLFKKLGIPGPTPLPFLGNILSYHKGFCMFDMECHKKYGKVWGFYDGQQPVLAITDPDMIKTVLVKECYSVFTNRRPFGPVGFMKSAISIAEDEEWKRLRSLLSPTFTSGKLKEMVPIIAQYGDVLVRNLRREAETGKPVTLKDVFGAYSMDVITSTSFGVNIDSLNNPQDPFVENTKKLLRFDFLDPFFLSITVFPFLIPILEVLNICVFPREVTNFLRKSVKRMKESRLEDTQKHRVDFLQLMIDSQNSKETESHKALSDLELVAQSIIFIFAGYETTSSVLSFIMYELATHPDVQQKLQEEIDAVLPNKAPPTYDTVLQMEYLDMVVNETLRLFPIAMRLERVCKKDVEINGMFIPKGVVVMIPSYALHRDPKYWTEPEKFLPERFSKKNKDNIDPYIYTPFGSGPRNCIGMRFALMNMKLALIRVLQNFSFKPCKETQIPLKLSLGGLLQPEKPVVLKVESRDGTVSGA
Cytochrome P450 2D6, sequence (P10635 whole entry): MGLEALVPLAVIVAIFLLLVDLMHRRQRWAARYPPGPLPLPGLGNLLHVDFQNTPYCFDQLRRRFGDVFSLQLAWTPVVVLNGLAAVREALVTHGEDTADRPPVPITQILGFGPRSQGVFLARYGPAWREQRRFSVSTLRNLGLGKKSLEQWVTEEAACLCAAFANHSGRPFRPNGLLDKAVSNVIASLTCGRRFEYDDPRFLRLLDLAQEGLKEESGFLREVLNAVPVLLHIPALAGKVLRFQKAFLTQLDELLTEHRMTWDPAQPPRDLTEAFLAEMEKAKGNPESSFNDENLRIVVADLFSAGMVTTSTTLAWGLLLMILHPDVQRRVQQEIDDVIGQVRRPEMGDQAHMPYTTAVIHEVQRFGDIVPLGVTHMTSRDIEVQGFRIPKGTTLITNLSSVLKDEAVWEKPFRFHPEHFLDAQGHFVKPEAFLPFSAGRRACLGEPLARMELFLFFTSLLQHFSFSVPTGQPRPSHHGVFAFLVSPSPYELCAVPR
Induced myeloid leukemia cell differentiation protein Mcl-1, sequence (Q07820 whole entry): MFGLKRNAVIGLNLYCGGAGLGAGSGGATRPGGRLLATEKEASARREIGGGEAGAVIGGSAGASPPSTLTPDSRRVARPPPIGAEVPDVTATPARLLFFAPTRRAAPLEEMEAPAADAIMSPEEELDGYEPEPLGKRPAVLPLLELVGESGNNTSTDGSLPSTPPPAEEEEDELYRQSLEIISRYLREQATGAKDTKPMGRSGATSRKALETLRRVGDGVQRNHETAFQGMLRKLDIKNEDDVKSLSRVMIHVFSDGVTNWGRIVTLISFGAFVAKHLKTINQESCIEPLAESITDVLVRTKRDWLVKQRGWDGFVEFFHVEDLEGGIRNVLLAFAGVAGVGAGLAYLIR

## O=C(C[n+]1ccc(-c2ccccc2)cc1)Nc1ccc([N+](=O)[O-])cc1
[1]
  EC50: > 50 µM (active)

## CCC12C=CCN3CCC4(c5ccc(OC)cc5N(C)C4[C@@](O)(C(=O)OC)C1OC(C)=O)C32 (stereo partly drawn)
[2]
  AC50: 3.98 µM (inconclusive)

## Cc1nc(N2CCOCC2)c2nc(-c3ccccc3)n(CCCN3CCCCC3C)c2n1 (stereo not drawn)
[2]
  AC50: 15.8 µM (inconclusive)

## COCCN1Cc2cccc(C(=O)Nc3cccc(C)c3C)c2C1=O
[3]
  IC50: 6.79 µM (not active)

## CCN(CC)C(=O)C(=O)c1cn(CC(=O)N2CCc3ccccc3C2)c2ccccc12
[1]
  EC50: > 50 µM (active)

## CC(=O)OC1CC2C(C)(C)C(=O)[C@@H]3OC3[C@@]2(C)C2CC[C@]3(C)C(=CC(=O)OC3c3ccoc3)[C@]12C (stereo partly drawn)
[2]
  AC50: 15.8 µM (inconclusive)

## C/C=C(\C)C(=O)N[C@@H](c1ccccc1)[C@@H](O)C(=O)O[C@H]1C[C@@]2(O)[C@@H](OC(=O)c3ccccc3)C3[C@](C)(C(=O)[C@H](OC(C)=O)C(=C1C)C2(C)C)[C@@H](O)C[C@H]1OC[C@@]31OC(C)=O (stereo partly drawn)
[4]
  IC50: > 80 µM (inactive)

## O=C(Nc1nc2ccccc2s1)c1ccccc1
[5]
  IC50: > 100 µM (inactive)

## CC1CCc2c(C(=O)Nc3nccs3)csc2C1 (stereo not drawn)
[6]
  AC50: 3.55 µM (inconclusive)
[5]
  IC50: > 100 µM (inactive)

## Cn1c(NC(=O)/C=C\c2ccccc2)cc(=O)n(C)c1=O
[7]
  IC50: 78.4 µM (active)
[8]
  IC50: 7.1 µM (not active)

## COC(=O)CCC(=O)NC(=S)Nc1sc(C)c(C)c1C(N)=O
[4]
  IC50: > 80 µM (inactive)

## COc1ccc(C(=O)c2oc3ccc(OC)cc3c2N)cc1
[5]
  IC50: > 100 µM (inactive)

## Cc1nnc(SCC(=O)Nc2cc(S(=O)(=O)N3CCCC3)ccc2Cl)s1
[1]
  EC50: > 50 µM (active)

## COc1ccc(OC2C=CC(c3ccccc3)OC2CO)c(C(C)=O)c1 (stereo not drawn)
[2]
  AC50: 3.98 µM (inconclusive)

## CC(=O)OC1=C(O)C(=O)c2ccccc2C1=O
[1]
  EC50: > 50 µM (active)

## N#CC1=C(N)Oc2nc(-c3ccccc3)[nH]c2C1c1cccnc1 (stereo not drawn)
[7]
  IC50: 66.6 µM (active)
[9]
  EC50: 2.6 µM (active)
[10]
  AC50: 11.3 µM (active)

## O=C(NC(=S)Nc1cccc2c(O)cccc12)c1cccc(Br)c1
[5]
  IC50: > 100 µM (inactive)

## O=S(=O)(Nc1ncccn1)c1ccc(NC(=S)Nc2ccc(Cl)cc2)cc1
[1]
  EC50: > 50 µM (active)

## COc1ccc(C2OCC3(COC(C)=O)C(C)C=C(C)C2C3C)cc1 (stereo not drawn)
[2]
  AC50: 15.8 µM (inconclusive)

## O=C1CSC(=S)N1c1cccc(O)c1
[1]
  EC50: > 50 µM (active)

## O=C(Cn1c(C(F)(F)F)nc2ccccc21)c1ccc(F)cc1
[11]
  AC50: 12.6 µM (inconclusive)
[5]
  IC50: > 100 µM (inactive)

## Cc1ccc(-c2cc(C(F)F)n3ncc(C(=O)N4CCN(c5cccc(C)c5C)CC4)c3n2)cc1
[12]
  CC50: 10.2 µM (active)
[5]
  IC50: > 100 µM (inactive)

## CNC[C@H]1Oc2c(NC(=O)Nc3ccc(OC)cc3)cccc2C(=O)N([C@H](C)CO)C[C@@H]1C
[13]
  AC50: 20 µM (inactive)

## C[C@@H]1CN([C@@H](C)CO)C(=O)c2cccc(NC(=O)Nc3ccc4c(c3)OCO4)c2O[C@@H]1CN(C)Cc1ccc(C(=O)Nc2ccccc2N)cc1
[13]
  AC50: 3.18 µM (active)

## C[C@@H]1CN([C@@H](C)CO)C(=O)c2cccc(NC(=O)Nc3ccc(C(F)(F)F)cc3)c2O[C@@H]1CN(C)Cc1ccc(C(=O)Nc2ccccc2N)cc1
[13]
  AC50: 0.787 µM (active)

## C[C@@H]1CCCCO[C@H](CN(C)Cc2ccc(C(=O)Nc3ccccc3N)cc2)[C@@H](C)CN([C@H](C)CO)C(=O)c2cc(NS(=O)(=O)c3ccc(F)cc3)ccc2O1
[13]
  AC50: 1.83 µM (active)

## C[C@@H]1CN([C@H](C)CO)C(=O)Cc2cc(NC(=O)Nc3ccc4c(c3)OCO4)ccc2O[C@@H]1CN(C)Cc1ccc(Oc2ccccc2)cc1
[13]
  AC50: 2.87 µM (active)

## CO[C@@H](CN(C)S(=O)(=O)c1ccc(Cl)cc1)[C@H](C)CN([C@@H](C)CO)S(=O)(=O)c1cccc(Cl)c1
[14]
  AC50: 20 µM (active)
[15]
  AC50: 19.1 µM (active)
[16]
  AC50: 8.73 µM (active)

## COC(=O)c1ccc(NC(=O)CO/N=C2\CCCc3nonc32)cc1
[1]
  EC50: > 50 µM (active)

## Oc1ccccc1O [CATECHOL]
[2]
  AC50: 10 µM (inconclusive)
